The results in this text go back to patent US11629141B2, “Proteasome inhibitors and uses thereof” (CORNELL UNIVERSITY, priority 2015, dated 2023).

Experiment [1] deals with T1, human constitutive proteasome β5c (Homo sapiens, UniProt P28074).
T1 construct: purchased Boston Biochem Inc
Nature of the experiment: IC50 against chymotryptic β5c activity of human constitutive proteasome (96-well plate, Suc-LLVY-AMC). The experiment is classed as biochemical. As to conditions: for pIC50: β5c, substrate Suc-LLVY-AMC, read-out: IC50 Hu c-20S (Suc-LLVY-AMC). As to the method: A 96-well-plate assays were used to determine the IC50s against the chymotryptic β5 activities of the proteasomes. Both human constitutive proteasome and immunoproteasome were purchased from Boston Biochem Inc. 1 μL of 100× compound in DMSO at designated concentrations were spotted at the bottom of the wells. DMSO was used as a control. Final concentrations of the inhibitors were from 100 μM to 0.098 μM. The hydrolysis of the substrate over time in each well was monitored at excitation 360 nm, emission 460 nm for 90 minutes. IC50s were estimated by fitting the velocities of hydrolysis against compound concentrations using PRISM. […] Suc-LLVY-AMC was used for βc at final concentration of 25 μM, and Ac-ANW-AMC for b5i at final concentration of 15 μM. SDS (0.02%) was used as activator, and 0.01% BSA was used in the reaction buffer.
The foregoing features of these AsnEDA encouraged a further round of SAR studies (Table 5) based on varying the carboxylic acid at the ethylenediamine, the N-cap at the Asn, and the side chain of the Asn, based on PKS21004. All compounds listed in the Table 5 were synthesized as described in Examples 6-77. All final compounds were confirmed by NMR and HRMS. IC50s of all compounds against β5i and β5c (Table 5), β1i, β2i, β1c and β2c were determined following a reported method (Lin et al., “N,C-Capped Dipeptides With Selectivity for Mycobacterial Proteasome Over Human Proteasomes: Role of S3 and S1Binding Pockets,” J Am Chem Soc. 135:9968-9971 (2013), which is hereby incorporated by reference in its entirety). […] The [1,1′-biphenyl]-3-carboxamide of PKS21004 was then modified with the following substituents: 4′-fluoro (PKS21026), 4′-cyano (PKS21028), 4-fluoro (PKS21196), 4,3′-difluoro (PKS21195) and 4,2′-difluoro (PKS21187).

Experiment [2] concerns the target T2, human immunoproteasome β5i (Homo sapiens, UniProt P28062).
T2 construct: purchased Boston Biochem Inc
Nature of the experiment: IC50 against chymotryptic β5i activity of human immunoproteasome (96-well plate, Ac-ANW-AMC). The format is biochemical. As to conditions: for pIC50: β5i, substrate Ac-ANW-AMC, read-out: IC50 Hu i-20S (Ac-ANW-AMC). On the procedure:
A 96-well-plate assays were used to determine the IC50s against the chymotryptic β5 activities of the proteasomes. Both human constitutive proteasome and immunoproteasome were purchased from Boston Biochem Inc. 1 μL of 100× compound in DMSO at designated concentrations were spotted at the bottom of the wells. DMSO was used as a control. […] The hydrolysis of the substrate over time in each well was monitored at excitation 360 nm, emission 460 nm for 90 minutes. IC50s were estimated by fitting the velocities of hydrolysis against compound concentrations using PRISM. […] SDS (0.02%) was used as activator, and 0.01% BSA was used in the reaction buffer.

pIC50: −log10 of the molar value.

In the case of `CC(C)(C)NC(=O)C[C@H](NC(=O)CCc1ccccc1)C(=O)NCCNC(=O)c1cccc(-c2ccc(C#N)cc2)c1` [PKS21028], the figures for the pIC50 in experiment [1] and in experiment [2] were 5.14 and 5.69, respectively.

Turning to `CC(C)(C)NC(=O)CC[C@H](NC(=O)CCc1ccccc1)C(=O)NCCNC(=O)c1cccc(-c2ccccc2)c1` [PKS21030], the values for the pIC50 in experiment [1] and in experiment [2] were 7.17 and 6.41, respectively.

Turning to `CC(C)(C)NC(=O)C[C@H](NC(=O)CCc1ccccc1)C(=O)NCCNC(=O)c1cc(-c2ccccc2)ccn1` [PKS21186], the pIC50 in experiment [1] is 5.56; in experiment [2], 6.90.

With `CC(C)(C)NC(=O)C[C@H](NC(=O)CCc1ccccc1)C(=O)NCCNC(=O)c1cc(-c2ccccc2F)ccc1F` [PKS21187], the negative logarithm of the IC50 (pIC50) in experiment [1] is 6.44; in experiment [2], 7.80. In experiment [2], the “selectivity for β5i over β5c” value is recorded as about 20 fold.

`CC(C)(C)NC(=O)C[C@H](NC(=O)CCc1ccccc1)C(=O)NCCNC(=O)c1cc(-c2cccc(F)c2)ccc1F` [PKS21195]: the figures for the negative-log IC50 (pIC50) in experiment [1] and in experiment [2] were 5.71 and 7.23, respectively.

Consider `CC(C)(C)NC(=O)C[C@H](NC(=O)CCc1ccccc1)C(=O)NCCNC(=O)c1cc(-c2ccccc2)ccc1F` [PKS21196], for which the pIC50 in experiment [1] is 6.09; in experiment [2], 7.36.

In the case of `Cc1cc(C(=O)N[C@@H](CC(=O)NC(C)(C)C)C(=O)NCCNC(=O)c2cc(-c3ccccc3F)ccc2F)no1` [PKS21208], the values for the negative logarithm of the IC50 (pIC50) in experiment [1] and in experiment [2] were 5.98 and 7.57, respectively.

On to `Cc1cc(C(=O)N[C@@H](CC(=O)NC(C)(C)C)C(=O)NCCNC(=O)c2cc(-c3cccc(F)c3)ccc2F)no1` [PKS21225], for which the pIC50 was 4.93 in experiment [1] and 6.57 in experiment [2].

With `Cc1ccc(S(=O)(=O)N[C@@H](CC(=O)NC(C)(C)C)C(=O)NCCNC(=O)c2cc(-c3cccc(F)c3)ccc2F)cc1` [PKS21228], the values for the negative logarithm of the IC50 (pIC50) in experiment [1] and in experiment [2] were 6.38 and 7.92, respectively.

Take `Cc1cc(C(=O)N[C@@H](CC(=O)NC(C)(C)C)C(=O)NCCNC(=O)c2ccccn2)no1` [PKS21250]: the pIC50 in experiment [1] was under 4.00; in experiment [2] it was 4.18.

As for `Cc1cc(C(=O)N[C@@H](CC(=O)NC(C)(C)C)C(=O)NCCNC(=O)c2ccccc2F)no1` [PKS21251], the pIC50 in experiment [1] is 4.41; in experiment [2], 5.20.

Consider `CC(C)(C)NC(=O)C[C@H](NC(=O)CCc1ccc(F)cc1)C(=O)NCCNC(=O)c1ccccn1` [PKS21254], for which the figures for the negative-log IC50 (pIC50) in experiment [1] and in experiment [2] were 4.24 and 5.11, respectively.

Regarding `CC(C)(C)NC(=O)C[C@H](NC(=O)CCc1ccc(F)cc1)C(=O)NCCNC(=O)c1ccccc1F` [PKS21255], the negative-log IC50 (pIC50) in experiment [1] was 5.44; in experiment [2], 6.13.

As for `CC(C)(C)NC(=O)C[C@H](NC(=O)CCc1ccc(F)cc1)C(=O)NCCNC(=O)c1cccc2cccnc12` [PKS21258], the values for the pIC50 in experiment [1] and in experiment [2] were 4.64 and 5.62, respectively.

Regarding `CC(C)(C)NC(=O)C[C@H](NC(=O)CCc1ccc(F)cc1)C(=O)NCCNC(=O)c1ccc(F)c2ccccc12` [PKS21259], the pIC50 in experiment [1] was 5.65; in experiment [2] it was 6.80.

Regarding `CC(C)(C)OC(=O)NCC(=O)NCCNC(=O)c1cc(-c2ccccc2F)ccc1F` [PKS21276], in experiment [1], the “inhibitory activity against β5c (in words)” value is “abolished the inhibitory activities” and the negative logarithm of the IC50 (pIC50) was under 4.00. For the same compound, in experiment [2], the “inhibitory activity against β5i (in words)” value is listed as “abolished the inhibitory activities” and the pIC50 is 4.62.

As to `CC(C)(C)NC(=O)C[C@H](NC(=O)OC(C)(C)C)C(=O)NCCNC(=O)c1cc(-c2ccccc2F)ccc1F` [PKS21277], in experiment [1], the pIC50 is 5.44. In experiment [2], the “inhibitory activity against β5i (in words)” value was “modestly potent”, the “selectivity for β5i over β5c” value was 36 fold and the pIC50 was 6.95.

As to `O=C(CCc1ccc(F)cc1)N[C@@H](CC(=O)NC1(C(F)(F)F)CC1)C(=O)NCCNC(=O)c1cccc(-c2ccccc2)c1` [PKS21278], the negative logarithm of the IC50 (pIC50) was 6.78 in experiment [1] and 7.10 in experiment [2].

Take `O=C(CCc1ccc(F)cc1)N[C@@H](CC(=O)NC1(C(F)(F)F)CC1)C(=O)NCCNC(=O)c1cc(-c2ccccc2F)ccc1F` [PKS21279]: the negative-log IC50 (pIC50) was 6.94 in experiment [1] and 7.43 in experiment [2].

For `C[C@H](NC(=O)OC(C)(C)C)C(=O)NCCNC(=O)c1cc(-c2ccccc2F)ccc1F` [PKS21280], in experiment [1], the “inhibitory activity against β5c (in words)” value is given as “abolished the inhibitory activities” and the pIC50 is under 4.00. Also, in experiment [2], the “inhibitory activity against β5i (in words)” value is “abolished the inhibitory activities” and the pIC50 is 4.48.

For the compound `CC(C)(C)OC(=O)N[C@@H](CC(N)=O)C(=O)NCCNC(=O)c1cc(-c2ccccc2F)ccc1F` [PKS21281], in experiment [1], the “inhibitory activity against β5c (in words)” value is “abolished the inhibitory activities” and the negative logarithm of the IC50 (pIC50) was under 4.00. For the same compound, in experiment [2], the “inhibitory activity against β5i (in words)” value is “abolished the inhibitory activities” and the pIC50 was under 4.00.

In the case of `Cc1ccc(S(=O)(=O)N[C@@H](CC(=O)NC(C)(C)C)C(=O)NCCNC(=O)c2cccc(-c3cc[nH]n3)c2)cc1` [PKS21282], the pIC50 in experiment [1] is 5.89; in experiment [2], 7.16.

As to `CC(C)(C)NC(=O)C[C@H](N)C(=O)NCCNC(=O)c1cc(-c2ccccc2F)ccc1F` [PKS21284], the pIC50 in experiment [1] is 5.51; in experiment [2] it was 6.20.

On to `Cc1ccc(S(=O)(=O)N[C@@H](CC(N)=O)C(=O)NCCNC(=O)c2cc(-c3ccccc3F)ccc2F)cc1` [PKS21288], for which, in experiment [1], the “inhibitory activity against β5c (in words)” value is given as “eliminated inhibitory activity” and the pIC50 is under 4.00. In experiment [2], the “inhibitory activity against β5i (in words)” value is listed as “eliminated inhibitory activity” and the pIC50 is 5.38.

Turning to `Cc1ccc(S(=O)(=O)NCC(=O)NCCNC(=O)c2cc(-c3ccccc3F)ccc2F)cc1` [PKS21289], in experiment [1], the “inhibitory activity against β5c (in words)” value is listed as “eliminated inhibitory activity” and the pIC50 is 4.22. Moreover, in experiment [2], the “inhibitory activity against β5i (in words)” value was “eliminated inhibitory activity” and the negative logarithm of the IC50 (pIC50) is 4.39.

With `Cc1ccc(S(=O)(=O)N[C@@H](C)C(=O)NCCNC(=O)c2cc(-c3ccccc3F)ccc2F)cc1` [PKS21290], in experiment [1], the “inhibitory activity against β5c (in words)” value is on record as “eliminated inhibitory activity” and the pIC50 was under 4.00. In experiment [2], the “inhibitory activity against β5i (in words)” value is on record as “eliminated inhibitory activity” and the negative logarithm of the IC50 (pIC50) is under 4.00.

`CC(C)(C)NC(=O)C[C@H](NS(=O)(=O)C1CC1)C(=O)NCCNC(=O)c1cc(-c2ccccc2F)ccc1F` [PKS21293]: the values for the negative logarithm of the IC50 (pIC50) in experiment [1] and in experiment [2] were 6.02 and 7.82, respectively.

Take `CC(=O)N[C@@H](CC(=O)NC(C)(C)C)C(=O)NCCNC(=O)c1cc(-c2ccccc2F)ccc1F` [PKS21294]: the pIC50 in experiment [1] is 4.88; in experiment [2], 6.21.

As to `Cc1ccc(S(=O)(=O)N[C@@H](CC(=O)NC(C)(C)C)C(=O)NCCNC(=O)c2cccc(N3CCNC3=O)c2)cc1` [PKS21295], the pIC50 is 5.62 in experiment [1] and 6.89 in experiment [2].
